The source made the active and inactive calls.
Columns and labels:
[1] = molecular target: Heat shock protein HSP 90-alpha (Homo sapiens, UniProt P07900); test: Luminescence-based dose response biochemical high throughput screening assay for inhibitors of the Heat Shock Protein 90 (HSP90). [Related pubchem assays: 1831 (Summary AID.), 1846 (Confirmation screen.), 1789 (Primary screen.)]
[2] = cytotoxicity in HPDE-C7 cells, cell-based, fluorescence, HTS (AID 430); format: functional; conditions: Homo sapiens
[3] = growth suppression of beta-catenin-knockout colon cells, dose response, cell-based, HCT116, human colon tumor (AID 1045); format: functional;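 further: HCT116 colon tumor cells with beta catenin knocked out; cells exposed to compound for 60 hours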
[4] = cytotoxicity in HEK-293T cells, dose response, cytotoxicity control for BCR NF-kB inhibitor project, luminescence, B-cell screen hits (AID 489021); format: functional, cell-based;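 further: HEK-293T cells carrying an NF-kB luciferase reporter; cells exposed to compound for about 14 hours before viability readout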
[5] = molecular target: T1, Hepatocyte nuclear factor 4-alpha (Homo sapiens, UniProt P41235); format: functional, cell-based;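 further: biochemical luminescence-based dose-response counterscreen measuring inhibition of HNF4 dimerization, run alongside a screen for blockers of ABHD5–perilipin-5 interaction; split luciferase complementation of HNF4 fusion proteins in cell lysate measuring dimerization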
T1 sequence (P41235 whole entry): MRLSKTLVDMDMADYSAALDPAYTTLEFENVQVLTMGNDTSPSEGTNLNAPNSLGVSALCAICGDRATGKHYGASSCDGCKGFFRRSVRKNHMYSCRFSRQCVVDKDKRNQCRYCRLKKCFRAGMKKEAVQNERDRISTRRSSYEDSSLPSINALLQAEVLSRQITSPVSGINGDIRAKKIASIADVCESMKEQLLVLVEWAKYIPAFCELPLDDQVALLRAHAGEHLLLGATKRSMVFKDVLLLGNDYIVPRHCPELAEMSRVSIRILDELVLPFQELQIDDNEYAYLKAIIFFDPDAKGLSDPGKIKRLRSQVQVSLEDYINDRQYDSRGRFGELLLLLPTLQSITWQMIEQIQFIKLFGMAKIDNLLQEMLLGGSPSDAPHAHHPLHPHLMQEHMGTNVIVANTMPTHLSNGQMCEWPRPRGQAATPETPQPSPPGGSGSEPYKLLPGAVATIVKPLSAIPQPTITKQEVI

[6] = cytotoxicity in KRAS-transformed pancreatic duct cells, primary screen, cell-based, fluorescence, HTS (AID 431); format: functional; conditions: Homo sapiens;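 further: cell line used: HPDE-C7K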
[7] = Vero cell cytotoxicity, dose response, cytotoxicity control for Vif-APOBEC3G degradation inhibitor project, Vero cells (AID 1117358); format: functional; conditions: Human immunodeficiency virus 1, Vero
[8] = growth suppression of PTEN-null colon cells, dose response, cell-based, HCT116 PTEN knockout (AID 1047); format: functional;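 further: HCT116 colon tumor cells with PTEN knocked out; cells exposed to compound for 60 hours before readout; potency for loss of cell viability measured by luminescence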
[9] = enhancers of respiration in Yfh1-depleted yeast, dose response, Friedreich's ataxia, plus single-dose screen (AID 1465); format: functional;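 further: yeast depleted of Yfh1p frataxin homolog grown on glycerol needing respiration; WST-1 tetrazolium dye reduction as measure of cellular dehydrogenase metabolic activity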
[10] = molecular target: T2, Neuropeptide Y receptor type 1 (Homo sapiens, UniProt P25929); test: NPY-Y1 receptor antagonist potency, dose response, cell-based (AID 1277); format: functional
T2 sequence (P25929 whole entry): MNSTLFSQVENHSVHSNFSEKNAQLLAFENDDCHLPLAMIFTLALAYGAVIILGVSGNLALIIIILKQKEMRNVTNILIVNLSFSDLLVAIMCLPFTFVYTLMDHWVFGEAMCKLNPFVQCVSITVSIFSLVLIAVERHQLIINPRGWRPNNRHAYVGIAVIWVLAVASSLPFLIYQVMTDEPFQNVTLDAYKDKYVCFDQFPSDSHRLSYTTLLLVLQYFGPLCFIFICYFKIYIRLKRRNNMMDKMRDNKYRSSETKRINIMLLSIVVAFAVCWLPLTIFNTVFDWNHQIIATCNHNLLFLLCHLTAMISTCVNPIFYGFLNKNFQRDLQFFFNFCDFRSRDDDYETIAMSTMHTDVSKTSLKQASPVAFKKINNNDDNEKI

[11] = molecular target: T3, Neuropeptide Y receptor type 2 (Homo sapiens, UniProt P49146); test: NPY-Y2 antagonist potency, selectivity check, dose response, counter-screen for NPY-Y1 antagonist project, cell-based (AID 1278); format: functional
T3 sequence (P49146 whole entry): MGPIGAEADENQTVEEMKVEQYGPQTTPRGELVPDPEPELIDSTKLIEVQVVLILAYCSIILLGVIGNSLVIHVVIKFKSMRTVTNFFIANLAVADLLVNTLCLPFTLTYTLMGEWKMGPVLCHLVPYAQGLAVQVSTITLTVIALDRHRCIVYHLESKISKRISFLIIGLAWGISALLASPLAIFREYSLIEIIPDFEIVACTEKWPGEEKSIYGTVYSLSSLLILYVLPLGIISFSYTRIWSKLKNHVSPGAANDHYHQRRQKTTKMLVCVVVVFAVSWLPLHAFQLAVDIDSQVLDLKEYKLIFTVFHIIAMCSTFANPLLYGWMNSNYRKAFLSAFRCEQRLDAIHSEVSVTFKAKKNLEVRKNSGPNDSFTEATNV

Vero [12] = test: cells; format: functional; conditions: Chlorocebus sabaeus
[13] = HEp-2 cell cytotoxicity, dose response, cytotoxicity control for RSV inhibitor project, HTS (AID 2410); format: functional; conditions: human respiratory syncytial virus
Vero [14] = test: host cell cytotoxicity of antiviral hits, dose response, cytotoxicity control for West Nile virus antiviral project, secondary assay (AID 1650); format: functional; conditions: Chlorocebus sabaeus
[15] = THP-1 cell cytotoxicity, dose response, cytotoxicity control for Vif-APOBEC3G degradation inhibitor project, THP-1 cells (AID 1117359); format: functional; conditions: Human immunodeficiency virus 1, THP-1
[16] = molecular target: Protein-tyrosine kinase 2-beta (Homo sapiens, UniProt Q14289);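 further: potency of inhibitors of PYK2 kinase phosphorylation of poly-GT substrate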
[17] = molecular target: Voltage-dependent T-type calcium channel subunit alpha-1H (Homo sapiens, UniProt O95180); format: functional;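 further: channel activity triggered by adding a high calcium stimulation buffer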
[18] = cytotoxicity toward HT-29 cells – cell-based, CellTiter-Glo luminescence, IC50, dose response (AID 1117330); format: functional
[19] = cytotoxicity toward Colo320 cells – cell-based, CellTiter-Glo luminescence, IC50, dose response (AID 1117334); format: functional; conditions: COLO 320
[20] = HeLa 4N DNA content increase, dose response, cell-based, IC50 (AID 1117351); format: functional
[21] = cytotoxicity toward HCT116 cells – cell-based, CellTiter-Glo luminescence, IC50, dose response (AID 1117332); format: functional; conditions: HCT-116
[22] = Glucagon-like peptide 1 release potency, NCI-H716 cell line, dose-response, half-maximal inhibitory concentration (AID 1117344); format: functional, cell-based
[23] = half-maximal inhibitory concentration for glucagon-like peptide-1 release, STC-1 cell line, dose-response (AID 1117345); format: functional, cell-based
[24] = Concentration-dependent survival of SW480 colon cancer line, luminescence detection with CellTiter-Glo, half-maximal inhibitory concentration (AID 1117338); format: functional
[25] = SNU-C1 cell viability reduction, dose response, CellTiter-Glo luminescence (AID 1117323); format: functional, cell-based
[26] = HCT116 cell viability decrease, GSK3B pretreatment – CellTiter-Glo, IC50, dose response (AID 1117339); format: functional; conditions: HCT-116
[27] = RKO cell viability reduction, dose response, CellTiter-Glo luminescence (AID 1117322); format: functional
[28] = HeLa 2N DNA content increase, dose response, cell-based, IC50 (AID 1117349); format: functional
[29] = CellTiter-Glo luminescent dose response of DLD-1 viability loss (AID 1117352); format: functional
Genome polyprotein = Genome polyprotein (Hepatitis C virus, UniProt Q2Q167); test: HCV core protein dimerization inhibitors, dose response, biochemical, TR-FRET (AID 2159); parameters: species or system Hepacivirus hominis;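 further: blocks dimerization of HCV core protein measured by TR-FRET between tagged core106 pairs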
H4 = test: Luminescence Cell-Based Dose Response HTS to Identify Activators of 5'UTR Stem-Loop Driven Prion Protein mRNA Translation in H4 Neuroglioblastoma Cells. [Related pubchem assays: 1829 (Project Summary), 1814 (Primary HTS)]; format: functional; conditions: Homo sapiens
[30] = Luminescence Cell-Based Dose Response to Identify Activators of 5'UTR Stem-Loop Driven Prion Protein mRNA Translation in H4-C Neuroglioblastoma Cells. [Related pubchem assays: 1829 (Project Summary), 1814 (Primary HTS)]; format: functional
[31] = Luminescence Cell-Based Dose Confirmation HTS to Identify Activators of 5'UTR Stem-Loop Driven Alpha-Synuclein mRNA Translation in H4 Neuroglioblastoma Cells. [Related pubchem assays: 1829 (Project Summary), 1814 (Primary HTS)]; format: functional
[32] = Luminescence Cell-Based Dose Confirmation to Identify Activators of 5'UTR Stem-Loop Driven Alpha-Synuclein mRNA Translation in H4 Neuroglioblastoma Cells. [Related pubchem assays: 1829 (Project Summary), 1814 (Primary HTS)]; format: functional
[33] = Luminescence Cell-Based Dose Response to Identify Activators of Luciferase Translation or Activity in H4-C Neuroglioblastoma Cells. [Related pubchem assays: 1829 (Project Summary), 1814 (Primary HTS)]; format: functional
[34] = Luminescence Cell-Based Dose Response HTS to Identify Activators of Luciferase Translation or Activity in H4 […] Cells. [Related pubchem assays: 1829 (Project Summary), 1814 (Primary HTS)]; format: functional
[35] = molecular target: E3 ubiquitin-protein ligase Mdm2 (Homo sapiens, UniProt Q00987); test: enhancers of MDM2-luciferase reporter signal, concentration-effect titration, project on inhibitors of MDM2 ubiquitin ligase, cellular assay, luminescent readout, 384-well plate format (AID 1394); format: functional;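 further: MDM2 E3 inhibitors raise luminescence so EC50 is for signal enhancement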
[36] = molecular target: Tyrosine-protein phosphatase non-receptor type 5 (Homo sapiens, UniProt P54829); test: STEP phosphatase inhibitors, confirmation, biochemical, fluorescence intensity, uHTS hits (AID 602372); format: functional; conditions: read-out: IC50_Mean
[37] = molecular target: Dual specificity protein phosphatase 3 (Homo sapiens, UniProt P51452); test: VHR phosphatase inhibition, dose response, selectivity assay for STEP inhibitor project, biochemical (AID 602374); format: functional; conditions: read-out: IC50_Mean
[38] = molecular target: Induced myeloid leukemia cell differentiation protein Mcl-1 (Homo sapiens, UniProt Q07820); test: MCL1-BIM BH3 interaction inhibitors, dose response, biochemical, fluorescence polarization, BIM-BH3 peptide, 1536-well (AID 2217)
Bcl-2-like protein 1 = Bcl-2-like protein 1 (Homo sapiens, UniProt Q07817); test: BCL-XL inhibitors, dose response, selectivity assay for MCL1 inhibitor project, biochemical, fluorescence polarization, 1536-well (AID 2218)
[39] = molecular target: T4, Small ubiquitin-related modifier 1 (Homo sapiens, UniProt P63165); test: inhibitors of SUMO1 partner interactions, dose response, biochemical, FRET (AID 624383); format: functional; conditions: read-out: IC50_Mean
[40] = molecular target: Tyrosine-protein phosphatase non-receptor type 11 (Homo sapiens, UniProt Q06124); test: SHP2 phosphatase inhibition, dose response, selectivity assay for STEP inhibitor project, biochemical (AID 602367); format: functional; conditions: read-out: IC50_Mean
[41] = molecular target: T4, Small ubiquitin-related modifier 1; test: inhibitors of SUMO1 peptide binding, dose response, biochemical, fluorescence polarization, uHTS hits (AID 624382); format: functional; conditions: read-out: IC50_Mean

T4 sequence (P63165 whole entry): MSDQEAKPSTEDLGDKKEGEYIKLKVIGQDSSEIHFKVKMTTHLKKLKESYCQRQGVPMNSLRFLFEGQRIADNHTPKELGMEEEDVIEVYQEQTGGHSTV
Chain of Dual specificity protein phosphatase 3 (P51452 whole entry): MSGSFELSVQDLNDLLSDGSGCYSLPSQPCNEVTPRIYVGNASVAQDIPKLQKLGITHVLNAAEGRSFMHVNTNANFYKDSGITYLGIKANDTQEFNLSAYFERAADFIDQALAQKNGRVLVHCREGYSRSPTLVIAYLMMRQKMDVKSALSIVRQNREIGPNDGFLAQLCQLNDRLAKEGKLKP
Chain of Bcl-2-like protein 1 (Q07817 whole entry): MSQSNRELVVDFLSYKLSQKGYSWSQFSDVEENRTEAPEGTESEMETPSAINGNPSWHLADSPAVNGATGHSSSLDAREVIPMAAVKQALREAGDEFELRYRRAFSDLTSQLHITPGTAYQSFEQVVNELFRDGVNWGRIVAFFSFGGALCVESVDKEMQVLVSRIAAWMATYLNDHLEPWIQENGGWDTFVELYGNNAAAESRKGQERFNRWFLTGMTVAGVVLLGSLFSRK
Chain of Voltage-dependent T-type calcium channel subunit alpha-1H (O95180 whole entry): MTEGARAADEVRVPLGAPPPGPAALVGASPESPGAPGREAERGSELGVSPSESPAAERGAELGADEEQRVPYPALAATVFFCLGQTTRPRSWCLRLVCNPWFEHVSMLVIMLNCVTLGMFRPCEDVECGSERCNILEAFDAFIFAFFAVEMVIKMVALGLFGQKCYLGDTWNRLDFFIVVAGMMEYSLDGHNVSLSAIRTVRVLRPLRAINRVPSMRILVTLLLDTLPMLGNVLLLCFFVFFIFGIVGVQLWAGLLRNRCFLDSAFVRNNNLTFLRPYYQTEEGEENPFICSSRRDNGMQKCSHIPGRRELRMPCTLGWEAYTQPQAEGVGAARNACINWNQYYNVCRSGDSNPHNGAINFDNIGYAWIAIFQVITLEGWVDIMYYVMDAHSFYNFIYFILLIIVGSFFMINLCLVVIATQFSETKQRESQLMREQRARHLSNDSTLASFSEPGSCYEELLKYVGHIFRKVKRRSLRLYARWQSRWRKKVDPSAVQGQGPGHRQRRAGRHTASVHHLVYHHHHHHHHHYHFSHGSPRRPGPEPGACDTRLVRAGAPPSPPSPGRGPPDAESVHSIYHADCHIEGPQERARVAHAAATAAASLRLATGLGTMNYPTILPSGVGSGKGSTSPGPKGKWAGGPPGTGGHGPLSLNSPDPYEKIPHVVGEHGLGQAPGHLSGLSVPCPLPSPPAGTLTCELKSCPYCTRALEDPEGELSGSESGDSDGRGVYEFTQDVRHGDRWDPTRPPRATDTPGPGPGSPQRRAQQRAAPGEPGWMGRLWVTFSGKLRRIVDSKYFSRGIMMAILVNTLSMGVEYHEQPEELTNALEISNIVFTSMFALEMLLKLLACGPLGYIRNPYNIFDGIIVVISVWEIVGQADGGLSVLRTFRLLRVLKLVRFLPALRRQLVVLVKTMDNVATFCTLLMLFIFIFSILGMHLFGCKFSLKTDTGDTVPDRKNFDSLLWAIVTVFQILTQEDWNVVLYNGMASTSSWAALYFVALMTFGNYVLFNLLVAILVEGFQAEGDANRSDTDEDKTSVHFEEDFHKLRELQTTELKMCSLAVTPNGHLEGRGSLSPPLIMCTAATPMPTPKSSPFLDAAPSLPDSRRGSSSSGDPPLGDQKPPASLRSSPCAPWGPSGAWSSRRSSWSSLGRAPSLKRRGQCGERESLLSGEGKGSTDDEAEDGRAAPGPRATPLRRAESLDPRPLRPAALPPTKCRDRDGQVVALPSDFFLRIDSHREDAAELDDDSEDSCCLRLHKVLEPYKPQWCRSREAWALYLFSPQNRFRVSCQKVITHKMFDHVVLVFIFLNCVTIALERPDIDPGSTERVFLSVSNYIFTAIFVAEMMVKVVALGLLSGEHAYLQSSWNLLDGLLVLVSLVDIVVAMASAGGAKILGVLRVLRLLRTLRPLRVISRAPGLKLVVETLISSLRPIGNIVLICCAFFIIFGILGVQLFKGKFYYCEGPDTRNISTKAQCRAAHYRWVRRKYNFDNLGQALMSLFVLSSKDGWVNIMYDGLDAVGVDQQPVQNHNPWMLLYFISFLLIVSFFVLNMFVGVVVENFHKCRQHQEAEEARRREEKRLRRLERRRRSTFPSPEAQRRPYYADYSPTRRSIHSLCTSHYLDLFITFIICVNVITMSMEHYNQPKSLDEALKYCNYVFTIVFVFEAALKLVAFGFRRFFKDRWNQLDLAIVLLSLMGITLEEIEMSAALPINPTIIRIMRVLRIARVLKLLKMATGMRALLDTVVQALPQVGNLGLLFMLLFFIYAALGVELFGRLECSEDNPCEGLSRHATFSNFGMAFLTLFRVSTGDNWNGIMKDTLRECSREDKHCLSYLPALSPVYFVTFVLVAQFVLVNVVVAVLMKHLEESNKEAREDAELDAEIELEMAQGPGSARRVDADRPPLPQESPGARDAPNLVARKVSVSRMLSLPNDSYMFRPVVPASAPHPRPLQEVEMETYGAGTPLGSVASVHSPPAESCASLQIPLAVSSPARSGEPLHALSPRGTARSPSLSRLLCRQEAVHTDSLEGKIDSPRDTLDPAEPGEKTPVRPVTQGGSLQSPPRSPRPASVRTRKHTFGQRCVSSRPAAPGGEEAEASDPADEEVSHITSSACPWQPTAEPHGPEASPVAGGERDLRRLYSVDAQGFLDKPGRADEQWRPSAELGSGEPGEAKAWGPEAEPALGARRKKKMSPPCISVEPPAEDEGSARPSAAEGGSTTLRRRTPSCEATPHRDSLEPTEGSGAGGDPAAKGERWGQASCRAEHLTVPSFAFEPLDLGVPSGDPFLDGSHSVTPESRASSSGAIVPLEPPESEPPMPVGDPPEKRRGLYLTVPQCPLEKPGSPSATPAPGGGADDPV
Chain of Protein-tyrosine kinase 2-beta (Q14289 whole entry): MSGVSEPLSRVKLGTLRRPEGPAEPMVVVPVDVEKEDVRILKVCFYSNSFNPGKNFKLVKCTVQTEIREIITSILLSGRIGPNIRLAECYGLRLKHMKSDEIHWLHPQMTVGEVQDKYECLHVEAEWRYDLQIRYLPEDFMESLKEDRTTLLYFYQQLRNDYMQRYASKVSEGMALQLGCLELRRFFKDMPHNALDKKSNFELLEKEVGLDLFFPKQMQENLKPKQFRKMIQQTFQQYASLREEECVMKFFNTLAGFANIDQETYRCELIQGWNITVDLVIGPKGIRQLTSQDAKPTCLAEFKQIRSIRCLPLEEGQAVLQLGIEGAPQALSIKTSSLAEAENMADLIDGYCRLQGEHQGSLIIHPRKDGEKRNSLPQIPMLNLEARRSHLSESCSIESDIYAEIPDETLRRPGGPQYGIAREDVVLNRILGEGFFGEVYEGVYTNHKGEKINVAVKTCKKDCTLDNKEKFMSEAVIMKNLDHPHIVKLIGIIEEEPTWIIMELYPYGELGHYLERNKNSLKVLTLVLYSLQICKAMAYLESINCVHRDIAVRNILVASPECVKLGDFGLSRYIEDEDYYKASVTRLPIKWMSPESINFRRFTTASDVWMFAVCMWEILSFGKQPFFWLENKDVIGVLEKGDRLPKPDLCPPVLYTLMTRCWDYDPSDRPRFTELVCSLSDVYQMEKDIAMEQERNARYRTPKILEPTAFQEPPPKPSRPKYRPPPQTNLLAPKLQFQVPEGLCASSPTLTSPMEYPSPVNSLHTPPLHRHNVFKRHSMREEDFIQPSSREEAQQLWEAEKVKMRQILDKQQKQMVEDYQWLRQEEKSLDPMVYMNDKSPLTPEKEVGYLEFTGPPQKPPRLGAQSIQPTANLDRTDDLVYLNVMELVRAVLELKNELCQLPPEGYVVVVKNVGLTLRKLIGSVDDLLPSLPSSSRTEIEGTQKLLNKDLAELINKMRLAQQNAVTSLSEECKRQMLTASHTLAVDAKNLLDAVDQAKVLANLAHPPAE
Chain of Genome polyprotein (Q2Q167 whole entry): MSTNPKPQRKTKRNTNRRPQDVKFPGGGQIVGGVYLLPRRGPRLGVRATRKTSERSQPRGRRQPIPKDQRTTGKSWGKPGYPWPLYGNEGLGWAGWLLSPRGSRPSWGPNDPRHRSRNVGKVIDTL
Chain of Induced myeloid leukemia cell differentiation protein Mcl-1 (Q07820 whole entry): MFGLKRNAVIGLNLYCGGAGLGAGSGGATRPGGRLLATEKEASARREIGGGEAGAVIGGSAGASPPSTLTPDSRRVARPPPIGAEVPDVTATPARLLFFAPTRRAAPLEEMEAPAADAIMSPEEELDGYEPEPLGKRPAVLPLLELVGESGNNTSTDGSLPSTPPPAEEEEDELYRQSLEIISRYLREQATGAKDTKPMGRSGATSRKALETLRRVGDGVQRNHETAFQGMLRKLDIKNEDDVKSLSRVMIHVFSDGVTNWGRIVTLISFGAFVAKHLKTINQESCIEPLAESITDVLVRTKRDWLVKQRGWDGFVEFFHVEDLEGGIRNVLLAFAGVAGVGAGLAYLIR
Chain of Tyrosine-protein phosphatase non-receptor type 11 (Q06124 whole entry): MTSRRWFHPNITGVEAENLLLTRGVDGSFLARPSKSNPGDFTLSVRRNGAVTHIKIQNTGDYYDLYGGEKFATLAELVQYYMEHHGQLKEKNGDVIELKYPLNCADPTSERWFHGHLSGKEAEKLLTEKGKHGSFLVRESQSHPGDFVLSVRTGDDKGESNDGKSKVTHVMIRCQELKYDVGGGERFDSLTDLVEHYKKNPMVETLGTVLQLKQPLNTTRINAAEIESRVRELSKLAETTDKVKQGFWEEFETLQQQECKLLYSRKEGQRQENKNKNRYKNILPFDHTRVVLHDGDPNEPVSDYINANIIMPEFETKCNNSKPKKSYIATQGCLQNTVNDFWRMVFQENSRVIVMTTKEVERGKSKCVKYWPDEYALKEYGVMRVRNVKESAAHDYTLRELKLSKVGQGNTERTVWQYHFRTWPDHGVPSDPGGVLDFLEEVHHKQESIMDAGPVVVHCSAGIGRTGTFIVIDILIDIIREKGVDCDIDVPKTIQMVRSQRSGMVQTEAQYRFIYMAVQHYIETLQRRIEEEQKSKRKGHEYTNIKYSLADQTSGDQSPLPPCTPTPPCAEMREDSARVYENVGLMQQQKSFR

SMILES: CCOC(=O)c1csc(NC(=O)c2ccc(OCC)cc2)n1
- IC50 [1]: 0.88 µM (active)

SMILES: CC1=CC(C)(C)Nc2ccc(OC(=O)c3cccnc3)cc21
- EC50 [2]: 8.6 µM (active)
- EC50 [3]: 5.85 µM (active)
- IC50 [4]: 62.5 µM (inactive)
- IC50 [5]: 3.22 µM (active)
- EC50 [6]: 8.23 µM (active)
- CC50 [7]: 34.4 µM (active)
- EC50 [8]: 7.33 µM (active)

SMILES: COc1ccc2ccccc2c1C(=O)/C=C\c1ccoc1
- EC50 [9]: > 100 µM (active)

SMILES: CCc1cccc(CC)c1NC(=O)C(NS(=O)(=O)c1cccs1)c1ccccc1 (centres undefined)
- IC50 [10]: > 35 µM (not active)
- IC50 [11]: > 35 µM (not active)

SMILES: COc1ccc(C(=O)N/N=C/C23CC[C@@H](O)CC2(O)CC[C@@H]2[C@@H]3CCC3(C)C(C4=CC(=O)OC4)CCC23O)cc1 (some centres undefined)
- CC50 (Vero [12]): 22.1 µM (active)
- CC50 [13]: 12.5 µM (active)
- CC50 (Vero [14]): 43.5 µM (active)
- CC50 [15]: 10.4 µM (active)

SMILES: Cc1oc(-c2ccccc2)cc1C(=O)Nc1cccc2ccccc12
- IC50 [16]: > 69.5 µM (not active)
- EC50 [17]: 18 µM (active)

SMILES: Oc1ccc([C@H]2CNCc3c2ccc(O)c3O)cc1O
- IC50 [18]: > 20 µM (inactive)
- IC50 [19]: 0.466 µM (active)
- IC50 [20]: > 10 µM (inactive)
- IC50 [21]: > 20 µM (inactive)
- IC50 [22]: 5.95 µM (inactive)
- IC50 [23]: > 20 µM (inactive)
- IC50 [24]: > 20 µM (inactive)
- IC50 [25]: > 20 µM (inactive)
- IC50 [26]: 0.188 µM (active)
- IC50 [27]: 0.0332 µM (active)
- IC50 [28]: > 10 µM (inactive)
- IC50 [29]: > 20 µM (inactive)

SMILES: Cc1cc(C(=O)OCC(=O)c2ccc(Cl)c([N+](=O)[O-])c2)c2cccc(C)c2n1
- IC50 (Genome polyprotein): > 49.8 µM (not active)

SMILES: Cc1csc(C(C#N)C(=O)c2cc3ccccc3o2)n1 (centres undefined)
- EC50 (H4): 3.63 µM (active)
- EC50 [30]: 1.46 µM (active)
- EC50 [31]: < 0.1 µM (active)
- EC50 [32]: 0.926 µM (active)
- EC50 [33]: 9.73 µM (active)
- EC50 [34]: 0.387 µM (active)

SMILES: CCOc1ccc(NC(=O)CN(C)S(=O)(=O)c2c[nH]cn2)cc1
- EC50 [35]: 25 µM (not active)

SMILES: O=C(N/N=C/c1ccncc1)c1cccc(S(=O)(=O)Nc2ccc(Cl)cc2)c1
- IC50 [36]: 14.7 µM (active)
- IC50 [37]: 2.87 µM (active)
- IC50 [38]: 11.3 µM (not active)
- IC50 (Bcl-2-like protein 1): > 109 µM (not active)
- IC50 [39]: 10.3 µM (active)
- IC50 [40]: 2.6 µM (active)
- IC50 [41]: > 66.6 µM (inactive)

Source: ChEMBL document CHEMBL1201862, “PubChem BioAssay data set” (2004)
